Data: patent US9187524B2, “Broad spectrum antibiotic arylomycin analogs” (The Scripps Research Institute, priority 2010, dated 2015)
Converted amounts (≈) assume the structure as drawn. Read-outs that look alike come from different tables or passages of the source.

Assays:
[1] = system: C. efficiens; test: microbe, parasite or virus in culture; format: cell-based; details: Corynebacterium efficiens
[2] = system: lepB(P84L) E. coli MG1655; test: microbe, parasite or virus in culture; format: cell-based, Escherichia coli; details: for MIC: Escherichia coli
[3] = system: Staphylococcus aureus (different strains); format: cell-based; details: Table 13; multiple values: different strains
[4] = system: S. pyogenes; test: microbe, parasite or virus in culture; format: cell-based, Streptococcus pyogenes; details: for MIC: Streptococcus pyogenes
[5] = system: Lactobacillus acidophilus; test: microbe, parasite or virus in culture; format: cell-based; details: Table 13
[6] = system: S. pneumoniae; test: microbe, parasite or virus in culture; format: cell-based, Streptococcus pneumoniae; details: for MIC: Streptococcus pneumoniae
[7] = molecular target: T1, full-length wild type E. coli SPase (Pro-variant) (Escherichia coli, UniProt P00803); test: biochemical; format: binding
T1 construct: Full length His-tagged E. coli SPase proteins were expressed in BL21(DE3); His6; made in house; host or cells: E. coli BL21(DE3)

[8] = system: Lactobacillus plantarum; test: microbe, parasite or virus in culture; format: cell-based; details: Lactiplantibacillus plantarum, Table 13
[9] = system: E. coli PAS0232 (SPase P84S); test: microbe, parasite or virus in culture; format: cell-based; details: Escherichia coli, read-out: MIC, E. coli PAS0232
[10] = system: R. equi; test: microbe, parasite or virus in culture; format: cell-based; details: Rhodococcus (subgen. Prescottella) equi; Table 4
[11] = system: Enterococcus faecalis; test: microbe, parasite or virus in culture; format: cell-based; details: Table 13
[12] = system: Klebsiella pneumoniae; test: microbe, parasite or virus in culture; format: cell-based; details: Table 13
[13] = system: S. agalactiae; test: microbe, parasite or virus in culture; format: cell-based, Streptococcus agalactiae; details: for MIC: Streptococcus agalactiae
[14] = system: Chlamydia trachomatis; test: microbe, parasite or virus in culture; format: cell-based
[15] = system: P. aeruginosa PAS2006 (SPase P84S); test: microbe, parasite or virus in culture; format: cell-based; details: Pseudomonas aeruginosa, read-out: MIC, P. aeruginosa PAS2006
[16] = system: Lactobacillus gasseri; test: microbe, parasite or virus in culture; format: cell-based; details: Table 13
[17] = system: S. aureus COL; test: microbe, parasite or virus in culture; format: cell-based; details: Staphylococcus aureus, read-out: MIC, S. aureus COL
[18] = system: R. opacus; test: microbe, parasite or virus in culture; format: cell-based; details: Rhodococcus opacus
[19] = system: L. lactis; test: microbe, parasite or virus in culture; format: cell-based, Lactococcus lactis
[20] = molecular target: T2, P84S variant of truncated E. coli SPase (Escherichia coli, UniProt P00803, P84S); test: biochemical; format: binding
T2 construct: a truncated wild type E. coli SPase that lacks the N-terminal membrane helices; made in house; host or cells: E. coli BL21(DE3)

[21] = system: B. brevis; test: microbe, parasite or virus in culture; format: cell-based, Brevibacillus brevis; details: for MIC: Brevibacillus brevis
[22] = molecular target: T3, full-length P29S mutant S. aureus SPase (Ser-variant) (Staphylococcus aureus, UniProt P0A070, P29S); test: biochemical; format: binding
T3 construct: Full length His-tagged S. aureus SPase proteins were expressed in and purified from BL21(DE3); His6 (N); made in house; host or cells: E. coli BL21(DE3)

[23] = system: Clostridium bolteae; test: microbe, parasite or virus in culture; format: cell-based; details: Enterocloster bolteae, Table 13
[24] = system: wild type S. aureus 8325; test: microbe, parasite or virus in culture; format: cell-based, Staphylococcus aureus; details: for MIC: Staphylococcus aureus
[25] = system: Clostridium difficile; test: microbe, parasite or virus in culture; format: cell-based; details: Clostridioides difficile, Table 13
[26] = molecular target: T4, full-length wild type S. aureus SPase (Pro-variant) (Staphylococcus aureus, UniProt P0A070); test: biochemical; format: binding
T4 construct: Full length His-tagged S. aureus SPase proteins were expressed in and purified from BL21(DE3); His6 (N); made in house; host or cells: E. coli BL21(DE3)

[27] = molecular target: T5, truncated wild type E. coli SPase (Escherichia coli, UniProt P00803); test: biochemical; format: binding
T5 construct: a truncated wild type E. coli SPase that lacks the N-terminal membrane helices; made in house; host or cells: E. coli BL21(DE3)

[28] = system: Yersinia pestis; test: microbe, parasite or virus in culture; format: cell-based; details: read-out: MIC, Yersinia pestis
[29] = system: wild type S. epidermidis RP62A; test: microbe, parasite or virus in culture; format: cell-based, Staphylococcus epidermidis; details: Staphylococcus epidermidis
[30] = system: Bacteroides fragilis; test: microbe, parasite or virus in culture; format: cell-based; details: Table 13
[31] = system: Staphylococcus haemolyticus; test: microbe, parasite or virus in culture; format: cell-based; details: Table 13
[32] = system: Clostridium perfringens; test: microbe, parasite or virus in culture; format: cell-based; details: read-out: MIC, Clostridium perfringens
[33] = system: Bacillus subtilis; test: microbe, parasite or virus in culture; format: cell-based; details: Table 13

SMILES: CCCCCCCCCCCCCCCC(=O)N(C)[C@H](CO)C(=O)N[C@H](C)C(=O)NCC(=O)N(C)[C@@H]1C(=O)N[C@@H](C)C(=O)N[C@H](C(=O)O)Cc2ccc(O)c(c2)-c2cc1ccc2O [Arylomycin C16]
- MIC ([1]; Table 4, read-out: MIC, C. efficiens): 16 µg/mL (≈ 18.2 µM)
- MIC ([1]; Table 13, […], read-out: MIC, Corynebacterium efficiens): > 64 µg/mL
- MIC ([1]; text b755, read-out: MIC, Corynebacterium efficiens): 16 µg/mL (≈ 18.2 µM)
- MIC ([2]; MG1655, read-out: MIC, E. coli P84L): 2 µg/mL (≈ 2.27 µM)
- MIC ([2]; MG1655, read-out: MIC, Sensitive Ec): 0.5 µg/mL (≈ 0.567 µM)
- MIC, Sensitive Ec ([2]; Table 2B, SPase without resistance-conferring Pro): 0.5 µg/mL (≈ 0.567 µM)
- MIC, Staphylococcus aureus [3]: 16 to 32 µg/mL
- MIC ([4]; Table 4, read-out: MIC, S. pyogenes): 8 µg/mL (≈ 9.08 µM)
- MIC ([4]; Table 13, […], read-out: MIC, Streptococcus pyogenes): 16 µg/mL (≈ 18.2 µM)
- MIC, S. pyogenes ([4]; Table 14): 8 µg/mL (≈ 9.08 µM)
- MIC [5]: > 128 µg/mL
- MIC ([6]; Table 4, read-out: MIC, S. pneumoniae): 8 µg/mL (≈ 9.08 µM)
- MIC ([6]; Table 13, […], read-out: MIC, Streptococcus pneumoniae): 16 µg/mL (≈ 18.2 µM)
- MIC, S. pneumoniae ([6]; Table 14): 8 µg/mL (≈ 9.08 µM)
- Kd [7]: 60 ± 16 nM
- MIC [8]: > 128 µg/mL
- MIC [9]: 2 µg/mL (≈ 2.27 µM)
- MIC [10]: 16 µg/mL (≈ 18.2 µM)
- MIC [11]: > 64 µg/mL
- MIC [12]: > 128 µg/mL
- MIC ([13]; Table 4, read-out: MIC, S. agalactiae): > 128 µg/mL
- MIC ([13]; Table 13, […], read-out: MIC, Streptococcus agalactiae): > 128 µg/mL
- MIC, S. agalactiae ([13]; Table 14): >128 µg/mL
- MIC ([14]; Table 13, […], read-out: MIC, Chlamydia trachomatis): 6 µg/mL (≈ 6.81 µM)
- MIC ([14]; eradicated from human HeLa 229 cells, read-out: MIC, C. trachomatis): 6 µg/mL (≈ 6.81 µM)
- MIC [15]: 8 µg/mL (≈ 9.08 µM)
- MIC [16]: > 128 µg/mL
- MIC [17]: 12 µg/mL (≈ 13.6 µM)
- MIC ([18]; Table 4, read-out: MIC, R. opacus): 1 µg/mL (≈ 1.13 µM)
- MIC ([18]; Table 13, […], read-out: MIC, Rhodococcus opacus): 2 µg/mL (≈ 2.27 µM)
- MIC ([19]; Lactococcus lactis, Table 4): 16 µg/mL (≈ 18.2 µM)
- MIC, Lactococcus lactis ([19]; Table 13, multiple values: different strains): 16 µg/mL (≈ 18.2 µM)
- sensitivity of Lactococcus lactis spp. cremonis ([19]; one SPase with Leu29): sensitive
- sensitivity of Lactococcus lactis spp. lactii ([19]; single SPase with Leu29): resistant
- Kd [20]: 39 ± 15 nM
- MIC ([21]; Table 4, read-out: MIC, B. brevis): > 64 µg/mL
- MIC ([21]; Table 13, […], read-out: MIC, Brevibacillus brevis): > 64 µg/mL
- activity against B. brevis ([21]; MHBII broth and nutrient broth): no activity
- Kd [22]: 130 ± 53 nM
- MIC [23]: > 16 µg/mL
- MIC ([24]; read-out: MIC, Resistant Sa): > 64 µg/mL
- MIC ([24]; Table 11, […], read-out: MIC, S. aureus NTCT 8325): > 128 µg/mL
- MIC, Resistant Sa ([24]; Table 2B, SPase with resistance-conferring Pro): >64 µg/mL
- MIC [25]: > 16 µg/mL
- Kd [26]: 1280 ± 278 nM
- Kd [27]: 979 ± 69 nM
- MIC [28]: 4 µg/mL (≈ 4.54 µM)
- MIC ([29]; Table 11, […], read-out: MIC, S. epidermidis RP62A): 0.25 µg/mL (≈ 0.284 µM)
- MIC ([29]; Table 13, […], read-out: MIC, Staphylococcus epidermidis): 0.25 µg/mL (≈ 0.284 µM)
- MIC ([29]; read-out: MIC, S. epidermidis): 0.25 µg/mL (≈ 0.284 µM)
- MIC ([29]; read-out: MIC, Sensitive Se): 0.5 µg/mL (≈ 0.567 µM)
- MIC [30]: > 16 µg/mL
- MIC [31]: 2 µg/mL (≈ 2.27 µM)
- MIC [32]: > 16 µg/mL
- MIC [33]: > 128 µg/mL
